One block for each compound: values may come before it.
Columns and labels:
[1] = Thermal stability test of different metal salts, 2% premix with corncob powder at 100° C., HPLC; format: physicochemical; conditions: for Initial content (%): 2% premix with corncob powder, before heating; for Residual content at 100° C. for 20 h (%) / Residual content at 100° C. for 40 h (%): 2% premix; for Residual content at 100° C. for 20 h (%) / Residual content at 100° C. for 40 h (%) / thermal stability (in words): 100° C.; for thermal stability (in words): compared with IST-009-001
Protocol: (§1) Each of the metal salts of 2-hydroxy-4-propylcyclohepta-2,4,6-trienone prepared in Embodiments 2-6 was mixed with corncob powder to obtain a premix with a mass fraction of 2%. Samples (the premix) were placed in crucibles and spread, and then placed in oven at 100° C. for different durations. Then 1.0 g of each of the samples (three duplicate samples from each sample) and 50 ml of ethanol were added into a conical flask, subjected to sonication for 10 min, and then filtrated through filter paper. The filtrate was transferred into a 50 ml volumetric flask, topped up to the final volume with ethanol, and then filtered with a 0.45 μm microporous membrane and subjected to HPLC analysis.
(§2) Chromatographic Parameters
(§3) Column: Wondasil C18 (250 mm×4.6 mm, 5 μm);
Mobile phase: methanol/40 mM ammonium acetate (65:35, v/v; pH 4):
(§4) Detection Wavelength: 220 nm;
(§5) Column Temperature: 25° C.;
(§6) Flow Rate: 0.8 or 1.0 ml/min.

[2] = Optical stability test of different metal salts, 2% premix, illumination at 4500-5000 lux for 5 days, HPLC; format: physicochemical; conditions: for Initial content (%): 2% premix with corncob powder, before illumination; for Residual content of 5 days later (%): 2% premix
Protocol: Samples (the premixes) were spread in a stability test chamber and subjected to illumination at 4500-5000 lux for 5 days. Then 1.0 g of each of the samples (three duplicate samples from each sample) and 50 ml of ethanol were added into a conical flask, subjected to sonication for 10 min, and then filtrated through filter paper. The filtrate was transferred into a 50 ml volumetric flask, topped up to the final volume with ethanol, and then filtered with a 0.45 μm microporous membrane and subjected to HPLC analysis. Column: WondasilC18 (250 mm×4.6 mm, 5 μm); Mobile Phase: methanol/40 mM ammonium acetate (65:35, v/v; pH 4): Detection Wavelength: 220 nm; Column Temperature: 25° C.; […] Flow Rate: 0.8 or 1.0 ml/min.

[3] = Thermal stability test of 7-oxo-3-propylcyclohepta-1,3,5-trien-1-yl stearate, 2% premix with corncob powder in oven, HPLC; format: physicochemical
Protocol: as §1, with “The” for “Each of the metal salts of 2-hydroxy-4-propylcyclohepta-2,4,6-trienone”, “7-oxo-3-propylcyclohepta-1,3,5-trien-1-yl stearate (IST-009-050)” for “in Embodiments 2-6”, “60°” for “100°”, “C. or eat” for “C.”
as §2, §3
Mobile Phase: acetonitrile (100%);
as §4, §5, §6

[4] = system: yellow feather broilers (female); experiment: Application in broiler feeds, 30 days test period, weight gain and feed conversion; format: in vivo; conditions: for Average daily weight gain / Average weight gain / Feed conversion efficiency / Consumption: 30 days; for Consumption: group of 100 broilers
Source text: 500 1-day-aged, healthy, fast-grown yellow feather broilers (female) in the same growing state and similar in weight were randomly divided into five groups according to table 4, 100 broilers in each group. Broilers of each group were fed with different dosages of magnesium 7-oxo-3-propylcyclohepta-1,3,5-trienolate or 2-hydroxy-4-propylcyclohepta-2,4,6-trienone.

[5] = 2.5 ppm mixed with feed, broilers
[6] = 5.0 ppm mixed with feed, broilers

Compound: CCCc1cccc(=O)c([O-])c1.[K+] [potassium 7-oxo-3-propylcyclohepta-1,3,5-trienolate]
Initial content (%) [1]: 2.0%
Residual content at 100° C. for 20 h (%) [1]: 1.43%
Residual content at 100° C. for 40 h (%) [1]: 1.13%
Initial content (%) [2]: 2.0%
Residual content of 5 days later (%) ([2]; 4500-5000 lux, 5 days): 0.17%

Compound: CCCc1cccc(=O)c(O)c1 [magnesium 7-oxo-3-propylcyclohepta-1,3,5-trienolate]
thermal stability (in words) [1]: highest thermal stability

Compound: CCCc1cccc(=O)c(O)c1 [Manganese 7-oxo-3-propylcyclohepta-1,3,5-trienolate]
Initial content (%) [1]: 2.0%
Residual content at 100° C. for 20 h (%) [1]: 1.99%
Residual content at 100° C. for 40 h (%) [1]: 1.98%
thermal stability (in words) [1]: highest thermal stability
Residual content of 5 days later (%) ([2]; 4500-5000 lux, 5 days): 1.96%
optical stability (in words) ([2]; 4500-5000 lux, 5 days): most significant

Compound: CCCc1cccc(=O)c(O)c1 [IST-009-001, 2-hydroxy-4-propylcyclohepta-2,4,6-trienone]
Content (%) ([3]; 2% premix, 80° C., 22 h): 0%
Content (%) ([3]; 2% premix, 80° C., 44 h): 0%
Content (%) ([3]; 2% premix, 80° C., 68 h): 0%
Initial content (%) [1]: 2.0%
Residual content at 100° C. for 20 h (%) [1]: 0%
Residual content at 100° C. for 40 h (%) [1]: 0%
Initial content (%) [2]: 2.0%
Residual content of 5 days later (%) ([2]; 4500-5000 lux, 5 days): 0%
Average daily weight gain [4, 5]: 26.1 g
Average weight gain [4, 5]: 783 g
Feed conversion efficiency [4, 5]: 1.988
Consumption ([4]; 2.5 ppm mixed with feed): 156.66 kg
Average daily weight gain [4, 6]: 26.8 g
Average weight gain [4, 6]: 804 g
Feed conversion efficiency [4, 6]: 1.906
Consumption ([4]; 5.0 ppm mixed with feed): 153.24 kg

Compound: CCCc1cccc(=O)c([O-])c1.[Na+] [sodium 7-oxo-3-propylcyclohepta-1,3,5-trienolate]
Initial content (%) [1]: 2.0%
Residual content at 100° C. for 20 h (%) [1]: 1.31%
Residual content at 100° C. for 40 h (%) [1]: 1.11%
Initial content (%) [2]: 2.0%
Residual content of 5 days later (%) ([2]; 4500-5000 lux, 5 days): 0.05%

Compound: CCCc1cccc(=O)c(O)c1 [Magnesium 7-oxo-3-propylcyclohepta-1,3,5-trienolate]
Residual content at 100° C. for 40 h (%) [1]: 1.99%
Residual content of 5 days later (%) ([2]; 4500-5000 lux, 5 days): 1.52%
Average daily weight gain [4, 5]: 26.2 g
Average weight gain [4, 5]: 785 g
Feed conversion efficiency [4, 5]: 1.984
Consumption ([4]; 2.5 ppm mixed with feed): 155.94 kg
Average daily weight gain [4, 6]: 26.6 g
Average weight gain [4, 6]: 798 g
Feed conversion efficiency [4, 6]: 1.899
Consumption ([4]; 5.0 ppm mixed with feed): 151.54 kg
feed conversion efficiency (in words) ([4]; broilers, 30 days test period): significantly improved
weight gain (in words) ([4]; broilers, 30 days test period): significantly improved

Compound: CCCc1cccc(=O)c(O)c1 [Calcium 7-oxo-3-propylcyclohepta-1,3,5-trienolate]
Residual content at 100° C. for 20 h (%) [1]: 1.73%
Residual content at 100° C. for 40 h (%) [1]: 1.67%
Residual content of 5 days later (%) ([2]; 4500-5000 lux, 5 days): 0.89%

Content (%) ([3]; 2% premix with corncob powder, before heating (no temperature, no time)): 2.0%
Content (%) ([3]; 2% premix, 60° C., 22 h): 0.84%
Content (%) ([3]; 2% premix, 60° C., 44 h): 0.35%
Content (%) ([3]; 2% premix, 60° C., 68 h): 0.14%
Content (%) ([3]; 2% premix, 80° C., 22 h): 0.61%
Content (%) ([3]; 2% premix, 80° C., 44 h): 0.03%
Content (%) ([3]; 2% premix, 80° C., 68 h): 0%
Compound: CCCCCCCCCCCCCCCCCC(=O)Oc1cc(CCC)cccc1=O [IST-009-050, 7-oxo-3-propylcyclohepta-1,3,5-trien-1-yl stearate]
thermal stability (in words) ([3]; compared with IST-009-001): better than the unesterified 2-hydroxy-4-propylcyclohepta-2,4,6-trienone (IST-009-001), but not satisfactory yet
